# Measured values reported in patent US6737383B1, “Herbicidal oxadiazolidines” (priority 1999, dated 2004).
# Legend:
# surinam grass = experiment: Test B pre/postemergence surinam grass; format: in vivo, Brachiaria decumbens
# In short: (§1)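 Test chemicals in a non-phytotoxic solvent mixture with surfactant were sprayed preemergence onto planted seeds and postemergence onto plants 2 to 18 cm tall (1- to 4-leaf stage). After twelve to sixteen days in a greenhouse, injury was visually rated against untreated controls from 0 (no effect) to 10 (complete control).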
# cocklebur = experiment: Test B pre/postemergence cocklebur; format: in vivo, Xanthium strumarium
# In short: as §1
# corn = experiment: Test B pre/postemergence corn; format: in vivo, Zea mays
# In short: as §1
# crabgrass = experiment: Test B pre/postemergence crabgrass; format: in vivo, Digitaria sanguinalis
# In short: as §1
# giant foxtail = experiment: Test B pre/postemergence giant foxtail; format: in vivo, Setaria faberii
# In short: as §1
# morningglory = experiment: Test B pre/postemergence morningglory; format: in vivo, Ipomoea hederacea
# In short: as §1
# pigweed = experiment: Test B pre/postemergence pigweed; format: in vivo, Amaranthus retroflexus
# In short: as §1
# rape = experiment: Test B pre/postemergence rape; format: in vivo, Brassica napus
# In short: as §1
# soybean = experiment: Test B pre/postemergence soybean; format: in vivo, Glycine max
# In short: as §1
# sugar beet = experiment: Test B pre/postemergence sugar beet; format: in vivo, Beta vulgaris
# In short: as §1
# wild oat = experiment: Test B pre/postemergence wild oat; format: in vivo, Avena fatua
# In short: as §1
# purple nutsedge = experiment: Test B pre/postemergence purple nutsedge; format: in vivo, Cyperus rotundus
# In short: as §1
# rice = experiment: Test B flood test rice; format: in vivo, Oryza sativa
# In short: (§2)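 Read-out is a visual response score from 0 (no effect) to 10 (complete control), assigned by comparison with untreated controls. Treatment was applied at the 2-leaf stage, and plants stayed in the greenhouse for twelve to sixteen days before scoring.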
# smallflower flatsedge = experiment: Test B flood test smallflower flatsedge; format: in vivo, Cyperus difformis
# In short: as §2
# duck salad = experiment: Test B flood test duck salad; format: in vivo, Heteranthera limosa
# In short: as §2
# bamyardgrass = experiment: Test B flood test barnyardgrass; format: in vivo, Echinochloa crus-galli
# In short: as §2
# [1] = Postemergence, Rate 62 g/ha, scale 0 to 10, 0 is no effect, 10 is complete control
# [2] = Postemergence, Rate 125 g/ha, scale of 0 to 10 where 0 is no effect and 10 is complete control
# [3] = Postemergence, Rate 250 g/ha, scale of 0 to 10, 0 is no effect, 10 is complete control
# [4] = Postemergence, Rate 500 g/ha, scale of 0 to 10 where 0 is no effect and 10 is complete control
# [5] = Preemergence, Rate 62 g/ha, scale of 0 to 10 where 0 is no effect and 10 is complete control
# [6] = Preemergence, Rate 125 g/ha, scale of 0 to 10 where 0 is no effect and 10 is complete control
# [7] = Preemergence, Rate 250 g/ha, scale 0 to 10 (0 no effect, 10 complete control)
# [8] = Preemergence, Rate 500 g/ha, scale of 0 to 10 where 0 is no effect and 10 is complete control
# [9] = Rate 62 g/ha, flood test species, Pre-emergence, visual evaluation after twelve to sixteen days
# [10] = Rate 125 g/ha, under heading Pre-emergence, flood test species, visual evaluation after twelve to sixteen days
# [11] = Rate 250 g/ha, Pre-emergence (flood test species), scale 0 to 10, 0 is no effect, 10 is complete control
# [12] = Rate 500 g/ha, Pre-emergence section of Table B, 0 to 10 scale (0 no effect, 10 complete control)
compound,measurement,setting,value
CC(C)N(C(=O)n1oc(=O)n(CC(=O)C2CCC2)c1=O)c1ccc(F)cc1F [Compound 642],"Plant response rating, B. signalgrass",surinam grass; [1],0
same,"Plant response rating, B. signalgrass",surinam grass; [2],0
same,B. signalgrass plant response rating,surinam grass; [3],0
same,"Plant response rating, B. signalgrass",surinam grass; [4],0
same,B. signalgrass plant response rating,surinam grass; [5],0
same,B. signalgrass plant response rating,surinam grass; [6],2
same,"Plant response rating, B. signalgrass",surinam grass; [7],5
same,"Plant response rating, B. signalgrass",surinam grass; [8],8
same,"Plant response rating, Cocklebur",cocklebur; [1],0
same,Cocklebur plant response rating,cocklebur; [2],0
same,Cocklebur plant response rating,cocklebur; [3],0
same,"Plant response rating, Cocklebur",cocklebur; [4],0
same,Cocklebur plant response rating,cocklebur; [5],0
same,Cocklebur plant response rating,cocklebur; [6],0
same,"Plant response rating, Cocklebur",cocklebur; [7],0
same,"Plant response rating, Cocklebur",cocklebur; [8],0
same,"Plant response rating, Corn",corn; [1],0
same,Corn plant response rating,corn; [2],0
same,Corn plant response rating,corn; [3],0
same,"Plant response rating, Corn",corn; [4],0
same,Corn plant response rating,corn; [5],0
same,Corn plant response rating,corn; [6],0
same,"Plant response rating, Corn",corn; [7],0
same,"Plant response rating, Corn",corn; [8],0
same,"Plant response rating, Crabgrass",crabgrass; [1],0
same,Crabgrass plant response rating,crabgrass; [2],0
same,Crabgrass plant response rating,crabgrass; [3],0
same,"Plant response rating, Crabgrass",crabgrass; [4],5
same,Crabgrass plant response rating,crabgrass; [5],6
same,Crabgrass plant response rating,crabgrass; [6],8
same,"Plant response rating, Crabgrass",crabgrass; [7],10
same,"Plant response rating, Crabgrass",crabgrass; [8],10
same,"Plant response rating, Giant foxtail",giant foxtail; [1],0
same,Giant foxtail plant response rating,giant foxtail; [2],0
same,Giant foxtail plant response rating,giant foxtail; [3],4
same,"Plant response rating, Giant foxtail",giant foxtail; [4],7
same,Giant foxtail plant response rating,giant foxtail; [5],8
same,Giant foxtail plant response rating,giant foxtail; [6],10
same,"Plant response rating, Giant foxtail",giant foxtail; [7],10
same,"Plant response rating, Giant foxtail",giant foxtail; [8],10
same,"Plant response rating, Morningglory",morningglory; [1],0
same,Morningglory plant response rating,morningglory; [2],0
same,Morningglory plant response rating,morningglory; [3],0
same,"Plant response rating, Morningglory",morningglory; [4],3
same,Morningglory plant response rating,morningglory; [5],0
same,Morningglory plant response rating,morningglory; [6],0
same,"Plant response rating, Morningglory",morningglory; [7],0
same,"Plant response rating, Morningglory",morningglory; [8],0
same,"Plant response rating, Redroot pigweed",pigweed; [1],0
same,Redroot pigweed plant response rating,pigweed; [2],0
same,Redroot pigweed plant response rating,pigweed; [3],0
same,Redroot pigweed plant response rating,pigweed; [5],0
same,Redroot pigweed plant response rating,pigweed; [6],0
same,"Plant response rating, Redroot pigweed",pigweed; [7],2
same,"Plant response rating, Redroot pigweed",pigweed; [8],8
same,"Plant response rating, Rape",rape; [1],0
same,Rape plant response rating,rape; [2],0
same,Rape plant response rating,rape; [3],0
same,"Plant response rating, Rape",rape; [4],0
same,Rape plant response rating,rape; [5],0
same,Rape plant response rating,rape; [6],2
same,"Plant response rating, Rape",rape; [7],4
same,"Plant response rating, Rape",rape; [8],9
same,"Plant response rating, Soybean",soybean; [1],2
same,Soybean plant response rating,soybean; [2],2
same,Soybean plant response rating,soybean; [3],2
same,Soybean plant response rating,soybean; [5],0
same,Soybean plant response rating,soybean; [6],0
same,"Plant response rating, Soybean",soybean; [7],0
same,"Plant response rating, Soybean",soybean; [8],0
same,"Plant response rating, Sugarbeets",sugar beet; [1],0
same,Sugarbeets plant response rating,sugar beet; [2],0
same,Sugarbeets plant response rating,sugar beet; [3],0
same,Sugarbeets plant response rating,sugar beet; [5],0
same,Sugarbeets plant response rating,sugar beet; [6],0
same,"Plant response rating, Sugarbeets",sugar beet; [7],0
same,"Plant response rating, Sugarbeets",sugar beet; [8],4
same,"Plant response rating, Wild oats",wild oat; [1],1
same,Wild oats plant response rating,wild oat; [2],1
same,Wild oats plant response rating,wild oat; [3],1
same,Wild oats plant response rating,wild oat; [5],0
same,Wild oats plant response rating,wild oat; [6],0
same,"Plant response rating, Wild oats",wild oat; [7],2
same,"Plant response rating, Wild oats",wild oat; [8],4
same,"Plant response rating, Nutsedge",purple nutsedge; [1],0
same,Nutsedge plant response rating,purple nutsedge; [2],0
same,Nutsedge plant response rating,purple nutsedge; [3],0
same,"Plant response rating, Nutsedge",purple nutsedge; [4],0
same,Nutsedge plant response rating,purple nutsedge; [5],0
same,Nutsedge plant response rating,purple nutsedge; [6],0
same,"Plant response rating, Nutsedge",purple nutsedge; [7],0
same,"Plant response rating, Nutsedge",purple nutsedge; [8],0
same,"Plant response rating, Rice (0 to 10 scale, 0 is no effect, 10 is complete control)",rice; [9],0
same,"Rice plant response rating (0 to 10 scale, 0 is no effect, 10 is complete control)",rice; [10],0
same,Rice plant response rating,rice; [11],0
same,Rice plant response rating,rice; [12],0
same,"Plant response rating, S. Flatsedge (0 to 10 scale, 0 is no effect, 10 is complete control)",smallflower flatsedge; [9],0
same,"S. Flatsedge plant response rating (0 to 10 scale, 0 is no effect, 10 is complete control)",smallflower flatsedge; [10],0
same,S. Flatsedge plant response rating,smallflower flatsedge; [11],0
same,S. Flatsedge plant response rating,smallflower flatsedge; [12],0
same,"Plant response rating, Ducksalad (0 to 10 scale, 0 is no effect, 10 is complete control)",duck salad; [9],0
same,"Ducksalad plant response rating (0 to 10 scale, 0 is no effect, 10 is complete control)",duck salad; [10],0
same,Ducksalad plant response rating,duck salad; [11],0
same,Ducksalad plant response rating,duck salad; [12],0
same,"Plant response rating, Barnyardgrass (0 to 10 scale, 0 is no effect, 10 is complete control)",bamyardgrass; [9],0
same,"Barnyardgrass plant response rating (0 to 10 scale, 0 is no effect, 10 is complete control)",bamyardgrass; [10],0
same,Barnyardgrass plant response rating,bamyardgrass; [11],0
same,Barnyardgrass plant response rating,bamyardgrass; [12],0
